The values below come from patent US20170022171A1, “2,5-DISUBSTITUTED CYCLOPENTANECARBOXYLIC ACIDS AND THEIR USE” (Bayer Pharma Aktiengesellschaft, priority 2014, published 2017).

SMILES strings stand for the structures.

The test system of the series is rat hepatocytes. Description: Hepatocyte assay for determination of metabolic stability. Type of series: in vitro ADME. To be noted: after incubation with rat hepatocytes. The procedure: The metabolic stability of test compounds towards hepatocytes is determined by incubating the compounds at low concentrations (preferably below or around 1 μM) and at low cell counts (preferably at 1*10^6 cells/ml) in order to ensure maximum linearity of kinetic conditions in the experiment. Seven samples from the incubation solution are taken for the LC-MS analysis within a fixed time pattern, in order to determine the half-life (i.e. the degradation) of the particular compound. This half life is used to calculate various “Clearance” parameters (CL) and “Fmax” values (see below).
The CL and Fmax values are a measure of the phase 1 and phase 2 metabolism of the compounds in the hepatocytes. In order to minimize the influence of the organic solvent on the enzymes in the incubation batches, the concentration thereof is generally limited to 1% (acetonitrile) or 0.1% (DMSO).
For all species and breeds, a hepatocyte cell count in the liver of 1.1*10^8 cells/g of liver is expected.
The parameters calculated and the meanings thereof are: • Fmax well-stirred [%] maximum possible bioavailability after oral administration • Calculation: (1−CLblood well-stirred/QH)*100 • CLblood well-stirred [L/(h*kg)] calculated blood clearance (well-stirred model) • Calculation: (QH*CL′intrinsic)/(QH+CL′intrinsic) • CL′intrinsic[ml/(min*kg)] maximum ability of the liver (of the hepatocytes) to metabolize a compound (assuming that the liver blood flow is not rate-limiting) • Calculation: CL′intrinsic, apparent*species-specific hepatocyte count [1.1*10^8/g liver]*species-specific liver weight [g/kg] • CL′intrinsic, apparent[ml/(min*mg)] normalizes the elimination constant by dividing it by the hepatocyte cell count x used (x*10^6/ml) • Calculation: ke1[1/min]/(cell count [x*10^6]/incubation volume [ml]) • (QH=species-specific liver blood flow).

For `O=C(O)[C@H]1[C@H](Cn2nnc3ccc(C(F)(F)F)cc3c2=O)CC[C@@H]1C(=O)c1ccc(OCc2ccccc2)cc1` (racemic) [Example 11, (+/−)-(1RS,2RS,5SR)-2-[4-(Benzyloxy)benzoyl]-5-{[4-oxo-6-(trifluoromethyl)-1,2,3-benzotriazin-3(4H)-yl]methyl}cyclopentanecarboxylic acid], the “CLblood (calculated blood clearance, well-stirred)” value is 18.7 mL/min/kg and the “Fmax (maximum possible bioavailability after oral administration, well-stirred)” value is reported as 73.3%.
